How the values were obtained:
[1] = 2-week dog toxicity and toxicokinetic study; type: in vivo
Procedure: Blood samples were collected on Day 0 and Day 13 of the study from up to 2 animals/gender/group.
Clinical pathology evaluations (hematology and serum chemistry) were performed prior to the initiation of treatment (Week −1) and just prior to the scheduled necropsy. At termination, necropsies were conducted and selected organs were weighed. Selected tissues were examined microscopically for animals in the control and high-dose groups.

[2] = Single-dose (25 mg) food effect crossover study in 24 men (DOV 947-003); type: in vivo, human; settings: for AUC(0-inf) / AUC(0-t) / Cmax / Tmax / half-life: male, human, in vivo, po, single oral dose 25 mg, 24 healthy male subjects
[3] = Multiple-dose safety and PK study 25 mg BID and 50 mg BID for 10 days; type: in vivo, human; settings: for drug accumulation: 10 days; for Cmax / Tmax / half-life / AUC(0-t): male, human, in vivo, healthy male subjects, mean (SD); for AUC(0-t): read-out: AUC0-12
Text: Twenty-two male subjects were randomized for the study and received study medication.

[4] = Phase 1b multiple-dose placebo-controlled safety study, 8 weeks; type: in vivo, human
Text: This Phase 1b study enrolled 46 male and female subjects.

[5] = female, beagle, in vivo, po, 5 mg/kg/day, females, 5 mg/kg/day, Day 0
[6] = female, beagle, in vivo, po, 5 mg/kg/day, females, 5 mg/kg/day, Day 13
[7] = female, beagle, in vivo, po, 10 mg/kg/day, females, 10 mg/kg/day, Day 0
[8] = female, beagle, in vivo, po, 10 mg/kg/day, females, 10 mg/kg/day, Day 13
[9] = female, beagle, in vivo, po, 20 mg/kg/day, females, 20 mg/kg/day, Day 0
[10] = male, beagle, in vivo, po, 5 mg/kg/day, males, 5 mg/kg/day, Day 0
[11] = male, beagle, in vivo, po, 5 mg/kg/day, males, 5 mg/kg/day, Day 13
[12] = male, beagle, in vivo, po, 10 mg/kg/day, males, 10 mg/kg/day, Day 0
[13] = male, beagle, in vivo, po, 10 mg/kg/day, males, 10 mg/kg/day, Day 13
[14] = male, beagle, in vivo, po, 20 mg/kg/day, males, 20 mg/kg/day, Day 0
[15] = male, beagle, in vivo, po, 20 mg/kg/day, males, 20 mg/kg/day, Day 13
[16] = 8 weeks, 25 to 75 mg BID, N = 31, Safety Population

Clc1ccc([C@]23CNC[C@H]2C3)cc1Cl [amitifadine, (+)-1-(3,4-dichlorophenyl)-3-azabicyclo[3.1.0]hexane]
(+) to (−) stereoisomer conversion [1]: no evidence of (+) to (−) stereoisomer conversion | NOAEL at 14 days ([1]; both sexes, beagle, in vivo, oral capsule, 14 days, read-out: NOAEL for systemic toxicity): 10 mg/kg/day | AUC(0-t) ([1]; female, beagle, in vivo, oral, 10 mg/kg/day, females, 10 mg/kg/day, Day 13, read-out: AUC0-24): 11200 ng·h/mL | Cmax [1, 5]: 1650 ng/mL | Tmax [1, 5]: 2 h | AUC(0-t) ([1]; female, beagle, in vivo, po, 5 mg/kg/day, females, 5 mg/kg/day, Day 0, read-out: AUC0-24): 5570 ng·h/mL | Cmax [1, 6]: 2040 ng/mL | Tmax [1, 6]: 1 h | AUC(0-t) ([1]; female, beagle, in vivo, po, 5 mg/kg/day, females, 5 mg/kg/day, Day 13, read-out: AUC0-24): 5610 ng·h/mL | Cmax [1, 7]: 3450 ng/mL | Tmax [1, 7]: 1 h | AUC(0-t) ([1]; female, beagle, in vivo, po, 10 mg/kg/day, females, 10 mg/kg/day, Day 0, read-out: AUC0-24): 15000 ng·h/mL | Cmax [1, 8]: 2800 ng/mL | Tmax [1, 8]: 2 h | Cmax [1, 9]: 9950 ng/mL | Tmax [1, 9]: 1 h | AUC(0-t) ([1]; female, beagle, in vivo, po, 20 mg/kg/day, females, 20 mg/kg/day, Day 0, read-out: AUC0-24): 57100 ng·h/mL | Cmax ([1]; female, beagle, in vivo, po, 20 mg/kg/day, females, 20 mg/kg/day, Day 13): 3530 ng/mL | AUC(0-t) ([1]; female, beagle, in vivo, po, 20 mg/kg/day, females, 20 mg/kg/day, Day 13, read-out: AUC0-24): 11500 ng·h/mL | AUC(0-t) ([1]; male, beagle, in vivo, oral, 10 mg/kg/day, males, 10 mg/kg/day, Day 13, read-out: AUC0-24): 3170 ng·h/mL | Cmax [1, 10]: 1580 ng/mL | Tmax [1, 10]: 1 h | AUC(0-t) ([1]; male, beagle, in vivo, po, 5 mg/kg/day, males, 5 mg/kg/day, Day 0, read-out: AUC0-24): 7360 ng·h/mL | Cmax [1, 11]: 1840 ng/mL | Tmax [1, 11]: 2 h | AUC(0-t) ([1]; male, beagle, in vivo, po, 5 mg/kg/day, males, 5 mg/kg/day, Day 13, read-out: AUC0-24): 7550 ng·h/mL | Cmax [1, 12]: 3830 ng/mL | Tmax [1, 12]: 1 h | AUC(0-t) ([1]; male, beagle, in vivo, po, 10 mg/kg/day, males, 10 mg/kg/day, Day 0, read-out: AUC0-24): 13800 ng·h/mL | Cmax [1, 13]: 1280 ng/mL | Tmax [1, 13]: 1 h | Cmax [1, 14]: 11600 ng/mL | Tmax [1, 14]: 1 h | AUC(0-t) ([1]; male, beagle, in vivo, po, 20 mg/kg/day, males, 20 mg/kg/day, Day 0, read-out: AUC0-24): 41700 ng·h/mL | Cmax [1, 15]: 9280 ng/mL | Tmax [1, 15]: 1 h | AUC(0-t) ([1]; male, beagle, in vivo, po, 20 mg/kg/day, males, 20 mg/kg/day, Day 13, read-out: AUC0-24): 32800 ng·h/mL | effect of food on exposure ([2]; fed vs fasted): no effect of food on exposure | AUC(0-inf) ([2]; Fasted): 1290 ng·h/mL | AUC(0-t) ([2]; Fasted): 1200 ng·h/mL | Cmax ([2]; Fasted): 272 ng/mL | Tmax ([2]; Fasted): 0.98 h | half-life ([2]; Fasted): 3.42 h | AUC(0-inf) ([2]; Fed): 1420 ng·h/mL | AUC(0-t) ([2]; Fed): 1320 ng·h/mL | Cmax ([2]; Fed): 224 ng/mL | Tmax ([2]; Fed): 2.57 h | half-life ([2]; Fed): 3.71 h | drug accumulation ([3]; 25 mg BID): 1.27 | drug accumulation ([3]; 50 mg BID): 1.44 | Cmax ([3]; 25 mg, 25 mg BID, Day 1): 327 ng/mL | Tmax ([3]; 25 mg, 25 mg BID, Day 1): 0.9 h | half-life ([3]; 25 mg, 25 mg BID, Day 1): 3.27 h | AUC(0-t) ([3]; 25 mg, 25 mg BID, Day 1): 1360 ng·h/mL | Cmax ([3]; 25 mg, 25 mg BID, Day 10): 388 ng/mL | Tmax ([3]; 25 mg, 25 mg BID, Day 10): 1.07 h | half-life ([3]; 25 mg, 25 mg BID, Day 10): 3.34 h | AUC(0-t) ([3]; 25 mg, 25 mg BID, Day 10): 1700 ng·h/mL | Cmax ([3]; 50 mg, 50 mg BID, Day 1): 496 ng/mL | half-life ([3]; 50 mg, 50 mg BID, Day 1): 3.19 h | AUC(0-t) ([3]; 50 mg, 50 mg BID, Day 1): 2240 ng·h/mL | Cmax ([3]; 50 mg, 50 mg BID, Day 10): 744 ng/mL | Tmax ([3]; 50 mg, 50 mg BID, Day 10): 1.18 h | half-life ([3]; 50 mg, 50 mg BID, Day 10): 2.97 h | AUC(0-t) ([3]; 50 mg, 50 mg BID, Day 10): 3200 ng·h/mL | Abdomibal Pain Upper, % of subjects [4, 16]: 0.0% | Abdomibal Pain Upper, number of subjects with AE [4, 16]: 0 | Abdominal Pain Lower, % of subjects [4, 16]: 0.0% | Abdominal Pain Lower, number of subjects with AE [4, 16]: 0 | Diarrhea, % of subjects [4, 16]: 6.5% | Diarrhea, number of subjects with AE [4, 16]: 2 | Dizziness, % of subjects [4, 16]: 6.5% | Dizziness, number of subjects with AE [4, 16]: 2 | Gastroesophageal Reflux Disease, % of subjects [4, 16]: 0.0% | Gastroesophageal Reflux Disease, number of subjects with AE [4, 16]: 0 | Headache, % of subjects [4, 16]: 22.6% | Headache, number of subjects with AE [4, 16]: 7 | Hyperhidrosis, % of subjects [4, 16]: 3.2% | Hyperhidrosis, number of subjects with AE [4, 16]: 1 | Increased Appetite, % of subjects [4, 16]: 3.2% | Increased Appetite, number of subjects with AE [4, 16]: 1 | Metrorrhagia, % of subjects [4, 16]: 3.2% | Metrorrhagia, number of subjects with AE [4, 16]: 1 | Nausea, % of subjects [4, 16]: 16.1% | Nausea, number of subjects with AE [4, 16]: 5 | Pruritus, % of subjects [4, 16]: 3.2% | Pruritus, number of subjects with AE [4, 16]: 1 | Rhinitis Allergic, % of subjects [4, 16]: 3.2% | Rhinitis Allergic, number of subjects with AE [4, 16]: 1 | Skin Rash, % of subjects [4, 16]: 3.2% | Skin Rash, number of subjects with AE [4, 16]: 1 | Subjects with at Least One AE, % [4, 16]: 35.5% | Syncope, % of subjects [4, 16]: 0.0% | Syncope, number of subjects with AE [4, 16]: 0 | Toothache, % of subjects [4, 16]: 3.2% | Toothache, number of subjects with AE [4, 16]: 1 | Total Number of Subjects with at Least One AE [4, 16]: 11 | proportion of subjects with TEAEs ([4]; 25-75 mg BID, 8 weeks): 36% | Completed Subjects, % ([4]; Randomized Population, N = 31): 74.2% | Premature discontinuation: Adverse Event, % ([4]; Randomized Population, N = 31): 3.2% | Premature discontinuation: Allergic Reaction to Study Medication, % ([4]; Randomized Population, N = 31): 3.2% | Premature discontinuation: Lost to Follow Up, % ([4]; Randomized Population, N = 31): 3.2% | Premature discontinuation: Other, % ([4]; Randomized Population, N = 31): 9.7% | Premature discontinuation: Subject Requested Withdrawal, % ([4]; Randomized Population, N = 31): 6.5% | Withdrawal/Early Termination, % ([4]; Randomized Population, N = 31): 25.8% | reduction in mean triglyceride levels ([4]; end of treatment period): ~29% | reduction in mean triglyceride levels ([4]; following 2 weeks of treatment): ~23% | subjects who dropped out due to AEs ([4]; in vivo): 3.2%

Reference: US20160346249A1 (priority 2012, published 2016)
